Measurements taken from patent US6166209A, “Piperidine derivatives” (Hoffmann-La Roche Inc., priority 1997, dated 2000).
Counter-ions that a name gives are not always drawn.

Key:
[1] = molecular target: T1, OFQ receptor (rat, LC132) (Rattus norvegicus, UniProt P35370); experiment: OFQ-R binding assay: [3H]-OFQ competition on membranes of 293s-OFQ-R cells; conditions: Ki from IC50 by Cheng and Prusoff, at least 6 concentrations in triplicate, determined twice, read-out: OFQ pKi (converted)
T1 construct: expressed in transfected cells; host or cells: HEK-293 cells adapted to suspension growth (293s), vector pCEP4; total membrane fraction of 293s-OFQ-R cells
Method: Methods of OFQ-R Binding Assay
HEK-293 cells adapted to suspension growth (293s) were cultured in HL medium plus 2% FBS. The cells were transfected with the rat OFQ receptor cDNA (LC132), FEBS Lett. 347, 284-288, 1994, cloned in the expression vector pCEP4 (Invitrogen, San Diego, Calif., USA) using lipofectin (Life Technologies, Bethesda, Md., USA). Transfected cells were selected in the presence of hygromycin (1000 U/ml) (Calbiochem, San Diego, Calif., USA). A pool of resistant cells was tested for OFQ-R expression by binding of [^3 H]-OFQ (Amersham PLC, Buckinghamshire, England). These cells (293s-OFQ-R) were expanded for large scale culture and membrane preparation.
293s-OFQ-R cells were harvested by centrifugation, washed 3 times with phosphate buffered saline (PBS) before resuspension in buffer A (50 mM Tris-HCl, pH 7.8, 5 mM MgCl2, 1 mM EGTA) and disruption with a tissue homogenizer (30 seconds, setting 4, Pt 20, Kinematica, Kriens-Lucern, Switzerland). A total membrane fraction was obtained by centrifugation at 49,000×g at 4° C. This procedure was repeated twice and the pellet was resuspended in buffer A. Aliquots were stored at -70° C. and protein concentrations were determined using the BCA™ Protein Assay Reagent (Pierce, Rockford, Ill.) following the manufacturer's recommendations.
[^3 H]-OFQ competition studies were carried out with 77 μg membrane protein in a final assay volume of 0.5 ml buffer A plus 0.1% BSA and 0.01% bacitracin (Boehringer-Mannheim, Mannheim, Germany) for one hour at room temperature. 50 nM unlabeled OFQ was used to define the non-specific binding. […] The retained radioactivity was counted on a Packard Top-Count microplate scintillation counter after addition of 40 μl of Microscint 40 (Canberra Packard). The effects of compounds were determined using at least 6 concentrations in triplicate, and determined twice. IC50 values were determined by curve fitting and these calues were converted to Ki values by the method of Cheng and Prusoff, Biochem. Pharmacol., 22, 3099, 1973.

[2] = tested on: OFQ-R; conditions: both in vitro and in vivo; cited from earlier work
[3] = tested on: adenylate cyclase in CHO(LC 132^+) cells; conditions: CHO(LC 132+) cells in culture; cited from earlier work
[4] = tested on: mice; conditions: intra-cerebroventricular; cited from earlier work
[5] = tested on: mice; conditions: intra-cerebroventricular; cited from earlier work; remark: listed apart in the source

T1 sequence (P35370 whole entry): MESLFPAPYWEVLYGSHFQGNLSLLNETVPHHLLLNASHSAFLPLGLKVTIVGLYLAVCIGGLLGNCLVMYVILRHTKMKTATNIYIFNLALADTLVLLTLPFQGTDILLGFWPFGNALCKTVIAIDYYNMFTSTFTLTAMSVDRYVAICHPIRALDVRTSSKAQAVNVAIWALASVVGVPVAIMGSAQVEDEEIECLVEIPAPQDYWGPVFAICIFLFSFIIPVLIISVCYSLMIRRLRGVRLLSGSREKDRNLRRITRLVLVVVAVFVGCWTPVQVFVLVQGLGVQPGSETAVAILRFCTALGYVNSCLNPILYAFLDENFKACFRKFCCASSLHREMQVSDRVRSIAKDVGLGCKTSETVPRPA

Compound: O=C1OC2(CCN(CCNC3c4ccccc4CCc4ccccc43)CC2)c2ccccc21 [A/1, 1'-[2-(10,11-Dihydro-5H-dibenzo[a,d]cyclohepten-5-ylamino)-ethyl]-spiro[isobenzofuran-1,4'-piperidin]-3-one methansulfonate (1:2)]
- Ki [1]: 50.1 nM

Compound: c1ccc2c(c1)CCCCC2NCCN1CCC2(CC1)OCc1ccccc12 (stereo not shown) [B/5, [2-(3H-Spiro[isobenzofuran-1,4'-piperidin]-1'yl)-ethyl]-(5,6,7,8-tetrahydro-4H-benzocyclohepten-4-yl)-amine hydrochloride (1:2)]
- Ki [1]: 100 nM

Compound: c1ccc(C(OCCN2CCC3(CC2)OCc2ccccc23)c2ccccc2)cc1 [Example C, 1'-(2Benzhydryloxy-ethyl)-3H-spiro[isobenzofuran-1,4'-piperidine]hydrochloride (1:1)]
- Ki [1]: 12.6 nM

Compound: F-G-G-F-T-G-A-R-K-S-A-R-K-L-A-N-Q (FGGFTGARKSARKLANQ) [OFQ, seventeen amino-acid-long peptide isolated from rat brain, natural ligand for a G-protein coupled receptor (OFQ-R)]
- agonistic activity at the OFQ-R [2]: exhibits agonistic activity
- inhibition of adenylate cyclase [3]: inhibits adenylate cyclase
- locomotive activity [4]: slows down locomotive activity
- hyperalgesia [5]: induces hyperalgesia
